Experiments:
[1] = molecular target: T1, Cathepsin K (Homo sapiens) (UniProt P43235); assay: Second order rate constant was measured for the inhibition of Cathepsin K
T1 sequence (whole entry): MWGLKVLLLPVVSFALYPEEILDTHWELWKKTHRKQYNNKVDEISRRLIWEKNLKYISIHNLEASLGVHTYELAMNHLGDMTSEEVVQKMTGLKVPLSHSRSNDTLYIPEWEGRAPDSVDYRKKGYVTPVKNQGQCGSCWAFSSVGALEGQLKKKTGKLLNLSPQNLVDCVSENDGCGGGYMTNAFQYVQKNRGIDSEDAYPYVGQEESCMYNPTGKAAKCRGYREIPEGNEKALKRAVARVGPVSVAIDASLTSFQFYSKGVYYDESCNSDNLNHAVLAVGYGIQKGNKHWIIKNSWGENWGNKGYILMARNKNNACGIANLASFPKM

[2] = molecular target: T2, Cathepsin K (Homo sapiens, UniProt P43235); assay: Relative binding affinity was measured for Cathepsin K; details: read-out: Ki app
T2 sequence (P43235 whole entry): T1 sequence (whole entry)

Row | SMILES | second-order inhibition rate constant (kobs/[I]) [1] [M⁻¹ s⁻¹] | Ki [2] [nM]
1 | CC(C)C[C@H](NC(=O)OCc1ccccc1)C(=O)NNC(=O)NNC(=O)c1ccccc1 | 38000 | 120
2 | CC(C)C[C@H](NC(=O)OCc1ccccc1)C(=O)NNC(=O)NNC(=O)c1cccc(OCc2ccccc2)c1 | 224000 | 27
3 | CC(C)C[C@H](NC(=O)OCc1ccccc1)C(=O)NNC(=O)NNC(=O)[C@H](C)NC(=O)OCc1ccccc1 | 685000 | 1
4 | CCC[C@H](NC(=O)OCc1ccccc1)C(=O)NNC(=O)NNC(=O)[C@H](CC(C)C)NC(=O)OCc1ccccc1 | 4e+06 | 0.8
5 | CC(C)C[C@H](NC(=O)OCc1ccccc1)C(=O)NNC(=O)NNC(=O)c1ccc(OCc2ccccc2)cc1 | 44000 | 100

More lines, now with the values ahead:

Row | second-order inhibition rate constant (kobs/[I]) [1] [M⁻¹ s⁻¹] | Ki [2] [nM] | SMILES
6 | 490000 | 3.4 | CC[C@H](NC(=O)OCc1ccccc1)C(=O)NNC(=O)NNC(=O)[C@H](CC(C)C)NC(=O)OCc1ccccc1
7 | 318000 | 12 | CC(C)C[C@H](NC(=O)OCc1ccccc1)C(=O)NNC(=O)NNC(=O)c1ccccc1OCc1ccccc1
8 | 3.1e+06 | 0.7 | CC(C)C[C@H](NC(=O)OCc1ccccc1)C(=O)NNC(=O)NNC(=O)[C@H](CC(C)C)NC(=O)OCc1ccccc1

Source: ChEMBL document CHEMBL1131128, “Structure-based design of cathepsin K inhibitors containing a benzyloxy-substituted benzoyl peptidomimetic” (J Med Chem, 1998)
